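The compound was tested at five concentrations on cells cultured in 96-well plates, with a 48-hour exposure period. GI50 = concentration required for 50% inhibition of growth.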 Calls of active or inactive are those of the source. Cut-off read from the data, not from the text of the source: active = GI50 up to about 1.1 µM and inactive = higher.
What was measured:
Assay in all cases: DTP human tumour cell line panel, 48 h
786-0 = system: 786-0
T47D = system: T47D
M14 = system: M14
RXF 393 = system: RXF 393
DU-145 = system: DU-145
HCT-15 = system: HCT-15
MCF7 = system: MCF7
SK-MEL-28 = system: SK-MEL-28
A498 = system: A498
LOX IMVI = system: LOX IMVI
SK-OV-3 = system: SK-OV-3
HCT-116 = system: HCT-116
HOP-62 = system: HOP-62
TK-10 = system: TK-10
OVCAR-4 = system: OVCAR-4
SN12C = system: SN12C
COLO 205 = system: COLO 205
SW-620 = system: SW-620
KM12 = system: KM12
MDA-MB-435 = system: MDA-MB-435
SK-MEL-2 = system: SK-MEL-2
U-251 = system: U-251
ACHN = system: ACHN
RPMI-8226 = system: RPMI-8226
UACC-62 = system: UACC-62
OVCAR-5 = system: OVCAR-5
SF-295 = system: SF-295
SNB-19 = system: SNB-19
NCI/ADR-RES = system: NCI/ADR-RES
MOLT-4 = system: MOLT-4
K562 = system: K562
UACC-257 = system: UACC-257
NCI-H226 = system: NCI-H226
UO-31 = system: UO-31
CAKI-1 = system: CAKI-1
OVCAR-8 = system: OVCAR-8
NCI-H460 = system: NCI-H460
Hs-578T = system: Hs-578T
A549 = system: A549
PC-3 = system: PC-3
MDA-MB-231 = system: MDA-MB-231
MDA-N = system: MDA-N
SNB-75 = system: SNB-75
HCC 2998 = system: HCC 2998
OVCAR-3 = system: OVCAR-3
SF-268 = system: SF-268
BT-549 = system: BT-549
NCI-H23 = system: NCI-H23
HL-60 = system: HL-60
Malme-3M = system: Malme-3M
HT-29 = system: HT-29
HOP-92 = system: HOP-92
CCRF-CEM = system: CCRF-CEM
EKVX = system: EKVX
NCI-H522 = system: NCI-H522
SK-MEL-5 = system: SK-MEL-5
SF-539 = system: SF-539
SR = system: SR
IGROV-1 = system: IGROV-1

With `CO[C@]12C#CC=CC#C[C@@H](O)[C@]3(CCC1)O[C@@]23c1cccc(O)c1` the GI50 (786-0) was > 100 µM (inactive), the GI50 (T47D) was > 100 µM (inactive) and the GI50 (M14) was > 100 µM (inactive). For the same compound, the GI50 (RXF 393) was > 100 µM (inactive), the GI50 (DU-145) was > 100 µM (inactive) and the GI50 (HCT-15) was over 100 µM. For the same compound, the GI50 (MCF7) was > 100 µM (inactive), the GI50 (SK-MEL-28) was > 100 µM (inactive) and the GI50 (A498) was > 100 µM (inactive). The GI50 (LOX IMVI) was > 100 µM (inactive), the GI50 (SK-OV-3) was > 100 µM (inactive) and the GI50 (HCT-116) was > 100 µM (inactive). For the same compound, the GI50 (HOP-62) was 79.3 µM (inactive), the GI50 (TK-10) was > 100 µM (inactive) and the GI50 (OVCAR-4) was > 100 µM (inactive). For the same compound, the GI50 (SN12C) was > 100 µM (inactive), the GI50 (COLO 205) was > 100 µM (inactive) and the GI50 (SW-620) was > 100 µM (inactive). The GI50 (KM12) was > 100 µM (inactive), the GI50 (MDA-MB-435) was > 100 µM (inactive) and the GI50 (SK-MEL-2) was > 100 µM (inactive). The GI50 (U-251) was > 100 µM (inactive), the GI50 (ACHN) was > 100 µM (inactive) and the GI50 (RPMI-8226) was > 100 µM (inactive). For the same compound, the GI50 (UACC-62) was 52.6 µM (inactive), the GI50 (OVCAR-5) was > 100 µM (inactive) and the GI50 (SF-295) was > 100 µM (inactive). For the same compound, the GI50 (SNB-19) was 51.3 µM (inactive), the GI50 (NCI/ADR-RES) was > 100 µM (inactive) and the GI50 (MOLT-4) was 54.8 µM (inactive). For the same compound, the GI50 (K562) was 97.3 µM (inactive), the GI50 (UACC-257) was > 100 µM (inactive) and the GI50 (NCI-H226) was > 100 µM (inactive). The GI50 (UO-31) was > 100 µM (inactive), the GI50 (CAKI-1) was > 100 µM (inactive) and the GI50 (OVCAR-8) was > 100 µM (inactive). The GI50 (NCI-H460) was > 100 µM (inactive), the GI50 (Hs-578T) was > 100 µM (inactive) and the GI50 (A549) was > 100 µM (inactive). For the same compound, the GI50 (PC-3) was > 100 µM (inactive), the GI50 (MDA-MB-231) was > 100 µM (inactive) and the GI50 (MDA-N) was > 100 µM (inactive). The GI50 (SNB-75) was > 100 µM (inactive), the GI50 (HCC 2998) was > 100 µM (inactive) and the GI50 (OVCAR-3) was > 100 µM (inactive). The GI50 (SF-268) was > 100 µM (inactive), the GI50 (BT-549) was > 100 µM (inactive) and the GI50 (NCI-H23) was > 100 µM (inactive).

For `CCOP(=O)(O)C1C(CO)OC(n2ccc(=O)[nH]c2=O)C1O` (stereo not drawn), the GI50 (786-0) was > 100 µM (inactive), the GI50 (T47D) was > 100 µM (inactive) and the GI50 (M14) was > 100 µM (inactive). For the same compound, the GI50 (HL-60) was > 100 µM (inactive), the GI50 (RXF 393) was > 100 µM (inactive) and the GI50 (Malme-3M) was > 100 µM (inactive). The GI50 (HT-29) was > 100 µM (inactive), the GI50 (HCT-15) was over 100 µM and the GI50 (SK-MEL-28) was > 100 µM (inactive). The GI50 (A498) was > 100 µM (inactive), the GI50 (LOX IMVI) was > 100 µM (inactive) and the GI50 (HOP-92) was > 100 µM (inactive). For the same compound, the GI50 (HCT-116) was > 100 µM (inactive), the GI50 (HOP-62) was > 100 µM (inactive) and the GI50 (TK-10) was > 100 µM (inactive). For the same compound, the GI50 (OVCAR-4) was > 100 µM (inactive), the GI50 (SN12C) was > 100 µM (inactive) and the GI50 (SW-620) was > 100 µM (inactive). The GI50 (KM12) was > 100 µM (inactive), the GI50 (SK-MEL-2) was > 100 µM (inactive) and the GI50 (ACHN) was > 100 µM (inactive). For the same compound, the GI50 (RPMI-8226) was > 100 µM (inactive), the GI50 (UACC-62) was > 100 µM (inactive) and the GI50 (CCRF-CEM) was > 100 µM (inactive). The GI50 (SF-295) was > 100 µM (inactive), the GI50 (SNB-19) was > 100 µM (inactive) and the GI50 (EKVX) was > 100 µM (inactive). The GI50 (MOLT-4) was > 100 µM (inactive), the GI50 (K562) was > 100 µM (inactive) and the GI50 (UACC-257) was > 100 µM (inactive). For the same compound, the GI50 (NCI-H226) was > 100 µM (inactive), the GI50 (NCI-H522) was > 100 µM (inactive) and the GI50 (UO-31) was > 100 µM (inactive). For the same compound, the GI50 (CAKI-1) was > 100 µM (inactive), the GI50 (SK-MEL-5) was > 100 µM (inactive) and the GI50 (OVCAR-8) was > 100 µM (inactive). The GI50 (NCI-H460) was > 100 µM (inactive), the GI50 (SF-539) was > 100 µM (inactive) and the GI50 (Hs-578T) was > 100 µM (inactive). For the same compound, the GI50 (A549) was > 100 µM (inactive), the GI50 (PC-3) was > 100 µM (inactive) and the GI50 (MDA-MB-231) was > 100 µM (inactive). For the same compound, the GI50 (SR) was > 100 µM (inactive), the GI50 (MDA-N) was > 100 µM (inactive) and the GI50 (SNB-75) was > 100 µM (inactive). The GI50 (HCC 2998) was > 100 µM (inactive), the GI50 (OVCAR-3) was > 100 µM (inactive) and the GI50 (SF-268) was > 100 µM (inactive). For the same compound, the GI50 (BT-549) was > 100 µM (inactive) and the GI50 (IGROV-1) was > 100 µM (inactive).

From ChEMBL document CHEMBL1201862, “PubChem BioAssay data set” (2004)
